The values that follow come from the Kinase Knowledgebase extract (Sharma et al. 2016).

The term IC50 denotes the concentration at which inhibition is half-maximal. Low readings indicate higher potency, high ones lower potency.

In the assay the target is CDK2 (UniProt P24941). Briefly: Enzyme Assay.
The compound `Cc1ccc(Nc2cc(-c3cccc(NS(C)(=O)=O)c3)ncn2)cc1CS(N)(=O)=O` showed an IC50 of 0.001 to 1 µM.
Then `Cc1ccc(Nc2cc(-c3cccc(O)c3)ncn2)cc1NS(C)(=O)=O`, with 0.001 to 1 µM; and `COc1ccccc1-c1cc(Nc2ccc(NC(=O)C(c3ccccc3)C(C)C)cc2)ncn1` (centres undefined), with 10 to 250 µM.
For `Nc1ccc(C(=O)Nc2ccc(Nc3cc(NCCO)ncn3)cc2)cc1` the value was 10 to 250 µM; for `COc1ccc(-c2cc(Nc3ccc(NC(=O)c4ccc(N)cc4)cc3)ncn2)c(OC)c1`, 0.001 to 1 µM.
Then `Cc1ccc(Nc2cc(-c3ccccc3O)ncn2)cc1NS(C)(=O)=O`, with 0.001 to 1 µM.
`COc1ccccc1-c1cc(Nc2ccc(NC(=O)c3nc4ccccc4s3)cc2)ncn1` showed an IC50 of 10 to 250 µM.
For `COc1ccc(Cl)cc1-c1cc(Nc2ccc(NC(=O)c3ccc(N)cc3)cc2)ncn1` the value was 10 to 250 µM.
`Cc1ccc(Nc2cc(-c3cccc(C=O)c3)ncn2)cc1NS(C)(=O)=O` yielded a concentration for half-maximal inhibition (IC50) of 1 to 10 µM.
For `COc1ccccc1-c1cc(Nc2ccc(C(=O)Nc3ccc(O)cc3)cc2)ncn1` the value was 1 to 10 µM; for `O=C(Nc1ccc(Nc2cc(-c3ccccc3Cl)ncn2)cc1)[C@@H]1CCCCN1`, 10 to 250 µM.
In turn, `COc1ccccc1-c1cc(Nc2ccc(NC(=O)C(C)(C)C)cc2C)ncn1` registered an IC50 of 10 to 250 µM.
`Cc1ccc(S(=O)(=O)Nc2ccc(Nc3cc(-c4ccc(O)cc4)ncn3)cc2)cc1`: the IC50 was 0.001 to 1 µM.
For `COc1ccccc1-c1cc(Nc2ccc(NC(=O)[C@@H]3CCCCN3C(=O)OC(C)(C)C)cc2)ncn1` the value was 1 to 10 µM; for `COc1ccccc1-c1cc(Nc2ccc(C(=O)NC(C)(C)C)cc2)ncn1`, 1 to 10 µM; for `COc1ccc(-c2cc(Nc3ccc(NS(=O)(=O)c4ccc(C)cc4)cc3)ncn2)cc1`, 1 to 10 µM.
Then `O=C(Nc1ccc(Nc2cc(-c3ccccc3OCc3ccccc3)ncn2)cc1)[C@@H]1CCCCN1`, with 0.001 to 1 µM; and `COc1ccccc1-c1cc(Nc2ccc(NC(=O)C(N)c3ccc4ccccc4c3)cc2)ncn1` (centres undefined), with 1 to 10 µM; and `COc1ccccc1-c1cc(Nc2ccc(NC(=O)c3ccc4c(c3)OCO4)cc2)ncn1`, with 1 to 10 µM.
Then `COc1ccccc1-c1cc(Nc2ccc(C(N)=O)cc2)ncn1`, with 0.001 to 1 µM.
The compound `COc1ccccc1-c1cc(Nc2ccc(NC(=O)C3CCCCC3)cc2)ncn1` came in with an IC50 of 10 to 250 µM.
For `CC(=O)Nc1cccc(-c2cc(Nc3ccc(C)c(NS(C)(=O)=O)c3)ncn2)c1` the value was 1 to 10 µM.
Then `COc1ccc(-c2cc(Nc3ccc(NC(=O)c4ccc(N)cc4)cc3)ncn2)cc1`, with 1 to 10 µM; and `CCCN(c1ccc(Nc2cc(-c3ccccc3OC)ncn2)cc1)S(=O)(=O)c1ccc(C)cc1`, with 10 to 250 µM; and `COc1ccccc1-c1cc(Nc2ccc(NC(=O)c3ccccc3N)cc2)ncn1`, with 1 to 10 µM.
Then `COc1ccccc1-c1cc(Nc2ccc(NC(=O)CC3CCCCN3C(=O)OC(C)(C)C)cc2)ncn1` (centres undefined), with 1 to 10 µM.
As to `COc1cccc(-c2cc(Nc3ccc(C)c(NS(C)(=O)=O)c3)ncn2)c1`, the IC50 fell in the range of 1 to 10 µM.
Then `COc1ccccc1-c1cc(Nc2ccc(NC(=N)N)cc2)ncn1`, with 1 to 10 µM; and `Nc1ccc(C(=O)Nc2ccc(Nc3cc(-c4ccncc4)ncn3)cc2)cc1`, with 10 to 250 µM; and `CS(=O)(=O)Nc1cc(Nc2cc(-c3cccc(N)c3)ncn2)ccc1OCc1ccccc1`, with 1 to 10 µM.
For `Cc1ccc(Nc2cc(-c3cncnc3)ncn2)cc1NS(C)(=O)=O` the value was 1 to 10 µM.
Then `COc1ccccc1-c1cc(Nc2ccc(-c3nc4ccccc4o3)cc2)ncn1`, with 10 to 250 µM.
For the compound `COc1ccccc1-c1cc(Nc2cccc(S(C)(=O)=O)c2)ncn1`, the IC50 fell in the range of 0.001 to 1 µM.
Turning to `CC(C)(C)C(=O)Nc1ccc(Nc2cc(-c3cccnc3)ncn2)cc1`, the IC50 lay within 10 to 250 µM.
For `COc1ccccc1-c1cc(Nc2ccc(NS(=O)(=O)c3ccc(-c4ccccc4)cc3)cc2)ncn1` the value was 1 to 10 µM; for `COc1ccccc1-c1cc(Nc2ccc(NC(=O)C34CC5CC(CC(C5)C3)C4)cc2)ncn1`, 10 to 250 µM; for `COc1ccccc1-c1cc(Nc2ccc(NC(=O)CC(C)(C)C)cc2)ncn1`, 1 to 10 µM.
Then `Nc1ccc(C(=O)Nc2ccc(Nc3cc(Cl)ncn3)cc2)cc1`, with 10 to 250 µM; and `Cc1ccc(Nc2cc(-c3cccc(C#N)c3)ncn2)cc1NS(C)(=O)=O`, with 1 to 10 µM.
Take `Nc1ccc(C(=O)Nc2ccc(Nc3cc(-c4ccccc4)ncn3)cc2)cc1`: the IC50 was 10 to 250 µM.
Then `Nc1ccc(C(=O)Nc2ccc(Nc3cc(-c4cccc(N)c4)ncn3)cc2)cc1`, with 1 to 10 µM; and `COc1ccccc1-c1cc(Nc2ccc(NC(=O)C(c3ccccc3)N(C)C)cc2)ncn1` (centres undefined), with 1 to 10 µM; and `COc1ccccc1-c1cc(Nc2ccc(C(=O)Nc3ccccc3)cc2)ncn1`, with 10 to 250 µM.
For `COc1ccc(-c2cc(Nc3ccc(NC(=O)[C@@H]4CCCCN4)cc3)ncn2)c(OC)c1` the value was 1 to 10 µM; for `COc1ccccc1-c1cc(Nc2ccc(C(=O)Nc3ccc(C(C)(C)C)cc3)cc2)ncn1`, 10 to 250 µM; for `COC(=O)CN(c1ccc(Nc2cc(-c3ccccc3OC)ncn2)cc1)S(=O)(=O)c1ccc(C)cc1`, 1 to 10 µM.
For `CC(C)Oc1ccccc1-c1cc(Nc2ccc(NC(=O)[C@@H]3CCCCN3)cc2)ncn1` the value was 1 to 10 µM; for `CCOc1ccccc1-c1cc(Nc2ccc(NC(=O)c3ccc(N)cc3)cc2)ncn1`, 1 to 10 µM; for `COc1ccccc1-c1cc(Nc2ccc(NC(=O)c3ccc4ccccc4n3)cc2)ncn1`, 10 to 250 µM.
`COc1ccccc1-c1cc(Nc2ccc(NC(=O)c3ccncc3)cc2)ncn1` came in with an IC50 of 10 to 250 µM.
Then `Nc1ccc(C(=O)Nc2ccc(Nc3cc(/C=C/c4ccccc4)ncn3)cc2)cc1`, with 10 to 250 µM.
For `COc1ccccc1-c1cc(Nc2ccc(NC(=O)[C@@H]3CCN3)cc2)ncn1` the value was 1 to 10 µM.
Then `COc1ccccc1-c1cc(Nc2cccc(S(N)(=O)=O)c2)ncn1`, with 0.001 to 1 µM.
In the case of `COc1ccc(C(C)C)cc1-c1cc(Nc2ccc(NC(=O)c3ccc(N)cc3)cc2)ncn1`, the IC50 lay within 10 to 250 µM.
Then `COc1ccc(-c2cc(Nc3ccc(C(=O)N[C@@H]4CCCC[C@H]4N)cc3)ncn2)cc1.COc1ccc(-c2cc(Nc3ccc(C(=O)N[C@H]4CCCC[C@@H]4N)cc3)ncn2)cc1`, with 1 to 10 µM.
In turn, `CC(C)(C)C(=O)Nc1ccc(Nc2cc(-c3ccccc3C(F)(F)F)ncn2)cc1` came in with an IC50 of 10 to 250 µM.
Consider `CC(C)Oc1ccccc1-c1cc(NCCc2ccncc2)ncn1`, for which the IC50 lay within 1 to 10 µM.
For `CN1CCN(c2cc(Nc3ccc(NC(=O)C(C)(C)C)cc3)ncn2)CC1` the value was 10 to 250 µM.
Then `COc1ccccc1-c1cc(Nc2ccc(C(=O)NC3CCCCC3)cc2)ncn1`, with 1 to 10 µM; and `Nc1ccc(C(=O)Nc2ccc(Nc3cc(NCC4CCCCC4)ncn3)cc2)cc1`, with 10 to 250 µM.
`COc1cccc(-c2cc(Nc3ccc(NS(=O)(=O)c4ccc(C)cc4)cc3)ncn2)c1` showed an IC50 of 10 to 250 µM.
`CS(=O)(=O)Nc1cccc(Nc2cc(-c3cccc(N)c3)ncn2)c1` had a concentration for half-maximal inhibition (IC50) of 1 to 10 µM.
Then `COc1ccc(-c2cc(NCCc3ccncc3)ncn2)cc1`, with 10 to 250 µM; and `CC(C)Oc1ccccc1-c1cc(Nc2ccc(C(=O)N[C@@H]3CCCC[C@H]3N)cc2)ncn1.CC(C)Oc1ccccc1-c1cc(Nc2ccc(C(=O)N[C@H]3CCCC[C@@H]3N)cc2)ncn1`, with 1 to 10 µM.
For `c1ccc(COc2ccccc2-c2cc(NCCc3ccncc3)ncn2)cc1` the value was 1 to 10 µM; for `COc1ncccc1-c1cc(Nc2ccc(NC(=O)[C@@H]3CCCCN3)cc2)ncn1`, 1 to 10 µM.
Then `COc1ccccc1-c1cc(Nc2ccc(C(=O)N[C@@H]3CCCC[C@@H]3N)cc2)ncn1.COc1ccccc1-c1cc(Nc2ccc(C(=O)N[C@H]3CCCC[C@H]3N)cc2)ncn1`, with 1 to 10 µM; and `Cc1ccc(S(=O)(=O)Nc2ccc(Nc3cc(Cl)ncn3)cc2)cc1`, with 1 to 10 µM; and `O=C(Nc1ccc(Nc2cc(-c3ccc(Oc4ccccc4)cc3)ncn2)cc1)[C@@H]1CCCCN1`, with 1 to 10 µM.
`COc1ccc(OC)c(-c2cc(Nc3ccc(NC(=O)c4ccc(N)cc4)cc3)ncn2)c1`: the IC50 fell in the range of 10 to 250 µM.
For `C=Cc1ccccc1-c1cc(Nc2ccc(NC(=O)C(C)(C)C)cc2)ncn1` the value was 10 to 250 µM; for `CC[C@H](C)[C@H](N)C(=O)Nc1ccc(Nc2cc(-c3ccccc3OC)ncn2)cc1`, 1 to 10 µM.
On to `COc1ccccc1-c1cc(Nc2ccc(NC(=O)CN(C)C)cc2)ncn1`, for which the IC50 lay within 1 to 10 µM.
Then `COc1ccccc1-c1cc(Nc2ccc(NC(=O)[C@@H](N)C(C)C)cc2)ncn1`, with 1 to 10 µM.
For `COc1ccccc1-c1cc(Nc2cccc(NC(=O)C(C)(C)C)c2)ncn1` the value was 1 to 10 µM; for `COc1ccc(-c2cc(Nc3cccc(S(N)(=O)=O)c3)ncn2)cc1`, 0.001 to 1 µM; for `CCc1ccccc1-c1cc(Nc2ccc(NC(=O)C(C)(C)C)cc2)ncn1`, 1 to 10 µM.
Then `CC(C)(C)C(=O)Nc1ccc(Nc2cc(-c3ccccc3F)ncn2)cc1`, with 10 to 250 µM; and `Cc1ccc(Nc2cc(-c3cccc(C(F)(F)F)c3)ncn2)cc1NS(C)(=O)=O`, with 10 to 250 µM; and `Cc1ccc(Nc2cc(-c3ccccc3)ncn2)cc1NS(C)(=O)=O`, with 0.001 to 1 µM.
Compound `Cc1ccc(Nc2cc(-c3ccccc3OCc3ccccc3)ncn2)cc1NS(C)(=O)=O` registered an IC50 of 0.001 to 1 µM.
For `Cc1ccc(Nc2cc(-c3ccccc3OC(C)C)ncn2)cc1NS(C)(=O)=O` the value was 0.001 to 1 µM.
For `CC(C)(C)C(=O)Nc1ccc(Nc2cc(-c3ccccc3OCc3ccccc3)ncn2)cc1` the value was 1 to 10 µM; for `COc1ccccc1-c1cc(Nc2ccc(NC(=O)c3ccc4[nH]cnc4c3)cc2)ncn1`, 10 to 250 µM.
Then `Nc1cccc(-c2cc(Nc3ccc(S(N)(=O)=O)cc3)ncn2)c1`, with 0.001 to 1 µM; and `COc1ccccc1-c1cc(Nc2ccc(NC(=O)c3ccc4ccccc4c3O)cc2)ncn1`, with 1 to 10 µM.
`COc1ccccc1-c1cc(Nc2ccc(NC(=O)c3ccc(N)cc3)cc2)nc(N)n1`: the IC50 is 10 to 250 µM.
For `CN1CCC(Nc2cc(Nc3ccc(NC(=O)C(C)(C)C)cc3)ncn2)CC1` the value was 10 to 250 µM.
Then `COc1ccccc1-c1cc(Nc2ccc(NC(=O)C3CC4CCC3C4)cc2)ncn1` (centres undefined), with 10 to 250 µM.
